The values below are quoted from earlier work in US10047050B2, “3,4-di-substituted pyridine compound, methods of using and compositions comprising the same” (ARDEA BIOSCIENCES, INC., priority 2011, dated 2018).

For this data set the following is noted: cited from earlier work.
Setting [1] is: individuals treated with probenecid.

`CCCN(CCC)S(=O)(=O)c1ccc(C(=O)O)cc1` [probenecid]: under setting [1], the “individuals who develop intolerance” value is reported as “one-third” and the “individuals who fail to achieve reduction of serum uric acid levels <6 mg/dL” value was 25-50%.

For the molecule `Oc1ncnc2[nH]ncc12` [Allopurinol, allopurinol], where the note is “of all individuals treated with the drug”, the “incidence of side effects” value is 20%.
